The results in this text go back to US20110053982A1, “ETHER BENZYLIDENE PIPERIDINE 5-MEMBERED ARYL CARBOXAMIDE COMPOUNDS USEFUL AS FAAH INHIBITORS” (PFIZER INC., priority 2008, published 2011).

The target of assay [1] is T1, Human FAAH (Homo sapiens, UniProt O00519).
T1 construct: made in house
T1 sequence (O00519 32-579 limits assumed): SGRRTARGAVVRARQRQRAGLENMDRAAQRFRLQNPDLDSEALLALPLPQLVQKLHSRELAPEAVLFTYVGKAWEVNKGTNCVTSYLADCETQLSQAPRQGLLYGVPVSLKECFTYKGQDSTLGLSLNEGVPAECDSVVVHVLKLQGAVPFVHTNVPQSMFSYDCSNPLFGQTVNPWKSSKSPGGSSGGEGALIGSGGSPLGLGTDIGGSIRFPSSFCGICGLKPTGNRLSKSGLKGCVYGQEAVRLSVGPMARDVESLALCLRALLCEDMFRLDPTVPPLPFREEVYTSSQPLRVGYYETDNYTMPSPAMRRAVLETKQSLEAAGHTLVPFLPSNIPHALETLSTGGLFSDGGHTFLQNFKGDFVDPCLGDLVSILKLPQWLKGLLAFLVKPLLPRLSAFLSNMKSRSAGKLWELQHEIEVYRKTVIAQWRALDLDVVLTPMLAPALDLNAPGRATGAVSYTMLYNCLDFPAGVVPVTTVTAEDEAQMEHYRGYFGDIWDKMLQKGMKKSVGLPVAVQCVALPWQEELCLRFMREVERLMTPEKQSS
Nature of the assay: FAAH assay, kinetic analysis of irreversible inhibition (kinact/Ki). The format is biochemical. The note with it: additional data table, unit inferred, read-out: hFAAH_Kinact/Ki. As for the experimental part: A FAAH assay may be carried out in 384-well clear polystyrene plates in a total volume of 50 μl per well. All percents are by volume. To each well is placed the reaction mixture (40 μl) containing 1-4 nM FAAH, 50 mM NaPi, pH 7.4, 3 mM α-ketoglutarate, 0.15 mM NADH, 7.5 U/ml glutamate dehydrogenase, 2 mM ADP, 1 mM EDTA, and 0.1% Triton X-100 (The concentration shown for each component is the final concentration in the assay). To this mixture is added 5 μl of a compound of Examples 1 to 20 at various concentrations prepared in 50% DMSO (or 5 μl 50% DMSO for controls). This is immediately followed by the addition of 5 μl oleamide (500 μM) dissolved in […] and the reaction mixture is mixed for 1.5 min. The final concentrations of DMSO and EtOH in the assay are each 7.5%. The reactions is then incubated at 30° C. and the absorbance at 340 nm is collected over a period of 90 min with readings taken in 30-second intervals using SpectraMax Plus^384 Microplate Spectrophotometer (Molecular Devices, Sunnyvale, Calif.). Human FAAH used in the assay is prepared as described in the patent application WO 2006/067613. The purity of the enzyme used is preferably greater than 98% based on an analysis by SDS-polyacrylamide gel electrophoresis followed by Coomassie Blue staining.
Initial velocity data (V) is obtained from the slopes of the initial progressive curves. They are plotted as a function of substrate concentration and fit to the Michaelis-Menten equation (1) using Prism (GraphPad Software, Inc., San Diego, Calif.) software to obtain Km and Vmax values.
To obtain potencies of irreversible inhibitors, progressive curves consistent with first order inhibition kinetics (two-step irreversible inhibition mechanism) are fit to equation (2) by nonlinear least squares regressions to determine kobs values at each inhibitor concentration, where [P]t is the absorbance at time t, V0 is a constant related to the steady state rate of the uninhibited reaction, and kobs is the first order rate constant for enzyme inactivation. The inhibitor dissociation constant (Ki) and the first order rate
constant of enzyme inactivation at infinite inhibitor concentration (kinact) are then obtained by fitting the kobs vs. [I] curves to equation (3).

Assay [2] addresses T2, rFAAH (Rattus norvegicus, UniProt P97612).
T2 sequence (P97612 1-579): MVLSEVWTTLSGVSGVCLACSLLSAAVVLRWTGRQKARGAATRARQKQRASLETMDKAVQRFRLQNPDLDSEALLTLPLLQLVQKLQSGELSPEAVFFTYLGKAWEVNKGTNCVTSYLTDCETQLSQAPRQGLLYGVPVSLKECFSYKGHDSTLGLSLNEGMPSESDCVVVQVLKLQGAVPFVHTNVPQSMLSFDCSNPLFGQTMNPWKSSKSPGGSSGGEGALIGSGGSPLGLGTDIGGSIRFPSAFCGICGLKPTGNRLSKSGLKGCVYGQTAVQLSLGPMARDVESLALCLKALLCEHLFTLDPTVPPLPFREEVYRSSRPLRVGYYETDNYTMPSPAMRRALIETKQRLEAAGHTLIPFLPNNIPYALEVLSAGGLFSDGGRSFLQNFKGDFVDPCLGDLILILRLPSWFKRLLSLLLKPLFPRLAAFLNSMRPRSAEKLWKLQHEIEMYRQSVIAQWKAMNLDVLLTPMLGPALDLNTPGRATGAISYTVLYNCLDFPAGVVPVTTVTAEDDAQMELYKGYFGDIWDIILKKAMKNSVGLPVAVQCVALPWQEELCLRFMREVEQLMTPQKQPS
Nature of the assay: FAAH assay, rFAAH kobs/I. The conditions noted are these: additional data table, unit not given. It is filed as biochemical.

`Cc1noc(NC(=O)N2CCC(=Cc3cccc(OC(C)Cc4ccccc4)c3)CC2)c1C` (stereo not drawn) [N-(3,4-dimethylisoxazol-5-yl)-4-[3-(1-methyl-2-phenylethoxy)benzylidene]piperidine-1-carboxamide]: the kinact/KI in assay [1] came out at 3410 M⁻¹ s⁻¹. Also, the “FAAH_KINACTR:rFAAH:kobs/I” value in assay [2] came to 10600.
Turning to `Cc1ncsc1CCOc1cccc(C=C2CCN(C(=O)Nc3cnoc3C)CC2)c1` [N-(5-methylisoxazol-4-yl)-4-{3-[2-(4-methyl-1,3-thiazol-5-yl)ethoxy]benzylidene}piperidine-1-carboxamide], the kinact/KI in assay [1] amounted to 903 M⁻¹ s⁻¹. Moreover, the “FAAH_KINACTR:rFAAH:kobs/I” value in assay [2] is recorded as below 11.9.
The like results for `CCCC(C)Oc1cccc(C=C2CCN(C(=O)Nc3onc(C)c3C)CC2)c1` (stereo not drawn) [N-(3,4-dimethylisoxazol-5-yl)-4-[3-(1-methylbutoxy)benzylidene]piperidine-1-carboxamide] were, in that order, 4600 M⁻¹ s⁻¹ and 4610.
For `Cc1noc(NC(=O)N2CCC(=Cc3cccc(OCC4CCCC4)c3)CC2)c1C` [4-[3-(cyclopentylmethoxy)benzylidene]-N-(3,4-dimethylisoxazol-5-yl)piperidine-1-carboxamide] the same measures were 5110 M⁻¹ s⁻¹ and 2360.
For `O=C(Nc1cnoc1)N1CCC(=Cc2cccc(OC3CCC(F)(F)CC3)c2)CC1` [4-{3-[(4,4-difluorocyclohexyl)oxy]benzylidene}-N-isoxazol-4-ylpiperidine-1-carboxamide] the same measures were 1530 M⁻¹ s⁻¹ and below 10.0.
On to `Cc1noc(NC(=O)N2CCC(=Cc3cccc(OC4CCC(C)(C)CC4)c3)CC2)c1C` [4-{3-[(4,4-dimethylcyclohexyl)oxy]benzylidene}-N-(3,4-dimethylisoxazol-5-yl)piperidine-1-carboxamide], for which, in assay [1], the kinact/KI worked out at 959 M⁻¹ s⁻¹. Also, in assay [2], the “FAAH_KINACTR:rFAAH:kobs/I” value is reported as 4910.
The like results for `Cc1noc(NC(=O)N2CCC(=Cc3cccc(OCCC4CC4)c3)CC2)c1C` [4-[3-(2-cyclopropylethoxy)benzylidene]-N-(3,4-dimethylisoxazol-5-yl)piperidine-1-carboxamide] were, in that order, 12900 M⁻¹ s⁻¹ and 2660.
For the compound `Cc1oncc1NC(=O)N1CCC(=Cc2cccc(OCCCc3cnoc3)c2)CC1` [4-[3-(3-isoxazol-4-ylpropoxy)benzylidene]-N-(5-methylisoxazol-4-yl)piperidine-1-carboxamide], the kinact/KI in assay [1] is 3990 M⁻¹ s⁻¹. Also, the “FAAH_KINACTR:rFAAH:kobs/I” value in assay [2] was below 13.2.
The like results for `Cc1oncc1NC(=O)N1CCC(=Cc2cccc(OC3CCC(F)(F)CC3)c2)CC1` [4-{3-[(4,4-difluorocyclohexyl)oxy]benzylidene}-N-(5-methylisoxazol-4-yl)piperidine-1-carboxamide] were, in that order, 2900 M⁻¹ s⁻¹ and 19.8.
For `Cc1cccc(OCCOc2cccc(C=C3CCN(C(=O)Nc4onc(C)c4C)CC3)c2)c1` [N-(3,4-dimethylisoxazol-5-yl)-4-{3-[2-(3-methylphenoxy)ethoxy]benzylidene}piperidine-1-carboxamide] the same measures were 13900 M⁻¹ s⁻¹ and 7840.
For `Cc1noc(NC(=O)N2CCC(=Cc3cccc(OC4CCC(F)(F)CC4)c3)CC2)c1C` [4-{3-[(4,4-difluorocyclohexyl)oxy]benzylidene}-N-(3,4-dimethylisoxazol-5-yl)piperidine-1-carboxamide], in assay [1], the kinact/KI worked out at 2540 M⁻¹ s⁻¹. The “FAAH_KINACTR:rFAAH:kobs/I” value in assay [2] is recorded as 1750.
For `Cc1oncc1NC(=O)N1CCC(=Cc2cccc(OC(C)Cc3ccccc3)c2)CC1` (stereo not drawn) [N-(5-methylisoxazol-4-yl)-4-[3-(1-methyl-2-phenylethoxy)benzylidene]piperidine-1-carboxamide] the same measures were 2150 M⁻¹ s⁻¹ and 208.
For `Cc1oncc1NC(=O)N1CCC(=Cc2cccc(OCC3CCC(F)(F)CC3)c2)CC1` [4-{3-[(4,4-difluorocyclohexyl)methoxy]benzylidene}-N-(5-methylisoxazol-4-yl)piperidine-1-carboxamide] the same measures were 1730 M⁻¹ s⁻¹ and 16.2.
The like results for `Cc1noc(NC(=O)N2CCC(=Cc3cccc(OCCc4ccc(F)cc4)c3)CC2)c1C` [N-(3,4-dimethylisoxazol-5-yl)-4-{3-[2-(4-fluorophenyl)ethoxy]benzylidene}piperidine-1-carboxamide] were, in that order, 12800 M⁻¹ s⁻¹ and 7550.
Regarding `Cc1oncc1NC(=O)N1CCC(=Cc2cccc(OCC3CCCCO3)c2)CC1` (stereo not drawn) [N-(5-methylisoxazol-4-yl)-4-[3-(tetrahydro-2H-pyran-2-ylmethoxy)benzylidene]piperidine-1-carboxamide], in assay [1], the kinact/KI was 646 M⁻¹ s⁻¹. Moreover, the “FAAH_KINACTR:rFAAH:kobs/I” value in assay [2] is below 11.3.
